Assay results from US20220401514A1, “ANTIMICROBIAL, BACTERIOPHAGE-DERIVED POLYPEPTIDES AND THEIR USE AGAINST GRAM-NEGATIVE AND ACID-FAST BACTERIA” (CONTRAFECT CORPORATION, priority 2019, published 2022).
Converted amounts (≈) assume the structure as drawn. Like-named read-outs stand apart in the source and are kept apart here.

Tests used:
Klebsiella pneumoniae [1] = test: microbe, parasite or virus in culture; assay type: cell-based
[2] = test system: M. kansasii Hauduroy ATCC 12478; test: 45 hr MIC against M. kansasii (NTM), Mueller Hinton broth; assay type: cell-based, Mycobacterium kansasii
Pseudomonas aeruginosa = test: microbe, parasite or virus in culture; assay type: cell-based
M. intracellulare = test: 45 hr MIC against M. intracellulare (NTM); assay type: cell-based, Mycobacterium intracellulare; conditions: M. intracellulare (Cuttino and McCabe) Runyon ATCC 13950
[3] = test system: P. aeruginosa strain CFS-1292; test: Checkerboard assay (FICI) with antibiotics, P. aeruginosa; assay type: cell-based, Pseudomonas aeruginosa; conditions: P. aeruginosa CFS-1292
How it was run: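 Antibiotic diluted 2-fold along one plate axis against Chp peptide; bacteria added at 1×10^5 […] in CAA, optionally with human serum or pulmonary surfactant.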

Klebsiella pneumoniae [4] = assay type: cell-based
Procedure: Determination of Minimal Inhibitory Concentrations (MIC).
Additional MIC testing was performed for several peptides against the ESKAPE pathogens Escherichia coli, Enterobacter cloacae, Klebsiella pneumoniae, and Acinetobacter baumannii, in CAA supplemented with human serum (Table D).

S. maltophilia = test: MIC against S. maltophilia isolates; assay type: cell-based, Stenotrophomonas maltophilia
How it was run: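 MIC in μg/mL for Chp peptides across several S. maltophilia isolates, n denoting the number of isolates tested.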

[5] = test system: P. aeruginosa strain CFS-1292; test: MIC in presence of mouse, rat, rabbit and human serum ([…] each); assay type: cell-based, Pseudomonas aeruginosa; conditions: P. aeruginosa CFS-1292
Procedure: The activity of several Chp peptides against P. aeruginosa strain CFS-1292 in animal serum was evaluated. […] Rat, mouse, and rabbit serum were all obtained from pooled gender samples.

[6] = test system: carbapenem-resistant P. aeruginosa clinical isolate CFS-1292; test: MIC by modified CLSI broth microdilution against P. aeruginosa CFS-1292 (CAA, CAA + human serum); assay type: cell-based, Pseudomonas aeruginosa; conditions: 100% CAA; 1st run or single value
[7] = test system: P. aeruginosa strain CFS-1292; test: MIC in presence of divalent cations (calcium chloride, magnesium sulfate); assay type: cell-based, Pseudomonas aeruginosa
Procedure: Next, Chp peptides were evaluated in the presence of different divalent cations. […]; (2) in the presence of 2 mM calcium chloride alone; (3) in the presence of 1 mM magnesium sulfate alone; and (4) in the presence of both 2 mM calcium chloride and 1 mM magnesium sulfate. […]

[8] = test system: P. aeruginosa strain CFS-1292; test: MIC in presence and absence of NaCl (140 mM); assay type: cell-based, Pseudomonas aeruginosa
Procedure: Certain Chp peptides were evaluated over a range of physiological NaCl levels and pH values, and were further evaluated for activity in the presence of various divalent cations.

[9] = test system: Pseudomonas aeruginosa, Escherichia coli, Enterobacter cloacae, Klebsiella pneumoniae, and Acinetobacter baumannii; test: MIC against a range of Gram-negative organisms (statements covering several species); assay type: cell-based; conditions: Tables 40-44 isolates
How it was run: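 Strains are exposed to peptide dilutions in CAA containing human serum, and the minimal inhibitory concentration is recorded.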

[10] = K. pneumoniae isolates (n per peptide in table)
[11] = S. maltophilia isolates (n per peptide in table)
[12] = P. aeruginosa isolates (n per peptide in table)

NC[C@H]1O[C@H](O[C@H]2[C@H](O)[C@@H](O[C@H]3O[C@H](CO)[C@@H](O)[C@H](N)[C@H]3O)[C@H](N)C[C@@H]2N)[C@H](N)C[C@@H]1O [tobramycin, reference compound]
MIC (Klebsiella pneumoniae [1]; Klebsiella pneumoniae, ATCC700603, K. pneumoniae (ATCC 700603), control agents of Table 8, read-out: MIC (in brackets beside MBEC)): < 0.5 µg/mL | MIC (Klebsiella pneumoniae [1]; Klebsiella pneumoniae, read-out: MIC (in brackets beside MBEC)): < 0.5 µg/mL | MIC ([2]; Mycobacterium kansasii, ATCC12478, 45 h, read-out: 45 hr MIC): 16 µg/mL (≈ 34.2 µM) | MIC (Pseudomonas aeruginosa; Pseudomonas aeruginosa, ATCC27853, P. aeruginosa (ATCC 27853), control agents of Table 8, read-out: MIC (in brackets beside MBEC)): < 0.5 µg/mL | MIC (M. intracellulare; Mycobacterium intracellulare, ATCC13950, 45 h, read-out: 45 hr MIC): 0.25 µg/mL (≈ 0.535 µM) | Antibiotic FIC ([3]; combined with Chp2-M1): 0.25 | Antibiotic FIC ([3]; combined with Chp2): 0.25 | Antibiotic FIC ([3]; combined with Chp4-M1): 0.25 | Antibiotic FIC ([3]; combined with Chp6-M1): 0.25 | Antibiotic FIC ([3]; combined with Chp10-M1): 0.25 | Antibiotic FIC ([3]; combined with Unp2-M1): 0.25

MARRRYRLPRRRSRRLFSRTALRMHPRNRLRRIMRGGIRF [Chp6]
MIC50 (Klebsiella pneumoniae [4]; [10]): 0.5 µg/mL | MIC100 (Klebsiella pneumoniae [4]; [10]): 1 µg/mL | MIC Range (Klebsiella pneumoniae [4]; [10]): 0.125 to 1 µg/mL | MIC (Klebsiella pneumoniae [4]; Klebsiella pneumoniae HM-44, CAA supplemented with human serum): 0.125 µg/mL | MIC50 (S. maltophilia; [11]): 0.5 µg/mL | MIC100 (S. maltophilia; [11]): 1 µg/mL | MIC Range (S. maltophilia; [11]): 0.25 to 1 µg/mL | activity against S. maltophilia (S. maltophilia; Table 45 isolates): active | MIC BALB/C Mouse Serum ([5]; BALB/C mouse serum […]): 32 µg/mL | MIC CAA ([5]; CAA): 1 µg/mL | MIC New Zealand White Rabbit Serum ([5]; New Zealand White rabbit serum […]): 4 µg/mL | MIC Sprague Dawley Rat Serum ([5]; Sprague Dawley rat serum […]): 4 µg/mL | MIC Human Serum ([5]; human serum […]): 1 µg/mL | MIC (Klebsiella pneumoniae [1]; Klebsiella pneumoniae (ATCC 10031, MIC control strain), RSC 814, CAA without human serum): 4 µg/mL | MIC (Klebsiella pneumoniae [1]; Klebsiella pneumoniae (g2-3 HM35K), RSC 1138, CAA without human serum): 4 µg/mL | MIC (Klebsiella pneumoniae [1]; Klebsiella sp. (HM-44; colon, Crohn's disease), RSC 1139, CAA without human serum): 1 µg/mL | MIC (Klebsiella pneumoniae [1]; Klebsiella spp. (HM-223; gut of Crohn's disease patient), RSC 1131, CAA without human serum): 4 µg/mL | MIC (μg/mL) against CFS-1292 in 100% CAA (1st run/2nd run) [6]: 0.5 µg/mL | 45 hr MIC [2]: 1 µg/mL | MIC ([7]; CAA media + 1 mM MgSO4): 1 µg/mL | MIC ([7]; CAA media + 2 mM CaCl2): 0.5 µg/mL | MIC ([7]; CAA media + + 1 mM MgSO4): 1 µg/mL | MIC ([7]; CAA media alone): 1 µg/mL | MIC (Pseudomonas aeruginosa; P. aeruginosa 453 (Human clinical isolate, HSS), RSC 1292, CAA without human serum): 2 µg/mL | MIC (Pseudomonas aeruginosa; P. aeruginosa (ATCC 14213, human hip wound), RSC 1111, CAA without human serum): 4 µg/mL | MIC (Pseudomonas aeruginosa; P. aeruginosa (ATCC 15152, abscess in middle ear), RSC 1110, CAA without human serum): 2 µg/mL | MIC (Pseudomonas aeruginosa; P. aeruginosa (ATCC 15692, infected wound), RSC 489, CAA without human serum): 2 µg/mL | MIC (Pseudomonas aeruginosa; P. aeruginosa (ATCC 15692, infected wound), RSC 1115, CAA without human serum): 4 µg/mL | MIC (Pseudomonas aeruginosa; P. aeruginosa (ATCC 17646, human liver abscess), RSC 1109, CAA without human serum): 4 µg/mL | MIC (Pseudomonas aeruginosa; P. aeruginosa (ATCC 19142, tracheobronchial secretion), RSC 1108, CAA without human serum): 2 µg/mL | MIC (Pseudomonas aeruginosa; P. aeruginosa (ATCC 25102, bacteriophage host), RSC 1114, CAA without human serum): 2 µg/mL | MIC (Pseudomonas aeruginosa; P. aeruginosa (ATCC 27853, MIC control strain), RSC 815, CAA without human serum): 1 µg/mL | MIC (Pseudomonas aeruginosa; P. aeruginosa (ATCC BAA-27, lab strain), RSC 1113, CAA without human serum): 2 µg/mL | MIC (Pseudomonas aeruginosa; P. aeruginosa (PAO1, alternate source, HER1018), RSC 490, CAA without human serum): 1 µg/mL | MIC50 (Pseudomonas aeruginosa; [12]): 1 µg/mL | MIC100 (Pseudomonas aeruginosa; [12]): 1 µg/mL | MIC Range (Pseudomonas aeruginosa; [12]): 0.5 to 1 µg/mL | 45 hr MIC (M. intracellulare): 0.5 µg/mL | Fold change in MIC ([8]; CAA + 140 mM NaCl versus CAA without added NaCl): 1 | MIC, CAA + 140 mM NaCl ([8]; CAA + 140 mM NaCl, P. aeruginosa CFS-1292): 0.5 µg/mL | MIC, CAA (no added NaCl) ([8]; CAA, no added NaCl, P. aeruginosa CFS-1292): 0.5 µg/mL | activity (good = MIC100 of ≤4) against all of P. aeruginosa, K. pneumoniae, A. baumannii, E. cloacae, and E. coli [9]: good activity
